We go through 1 molecule from ChEMBL document CHEMBL4007467, “Effects of 6-paradol, an unsaturated ketone from gingers, on cytochrome P450-mediated drug metabolism” (Bioorg Med Chem Lett, 2017).

Holding throughout (format): ADME
In data set [1] the target is T1, CYP2C8 (Homo sapiens, UniProt P10632).
T1 sequence (P10632 whole entry): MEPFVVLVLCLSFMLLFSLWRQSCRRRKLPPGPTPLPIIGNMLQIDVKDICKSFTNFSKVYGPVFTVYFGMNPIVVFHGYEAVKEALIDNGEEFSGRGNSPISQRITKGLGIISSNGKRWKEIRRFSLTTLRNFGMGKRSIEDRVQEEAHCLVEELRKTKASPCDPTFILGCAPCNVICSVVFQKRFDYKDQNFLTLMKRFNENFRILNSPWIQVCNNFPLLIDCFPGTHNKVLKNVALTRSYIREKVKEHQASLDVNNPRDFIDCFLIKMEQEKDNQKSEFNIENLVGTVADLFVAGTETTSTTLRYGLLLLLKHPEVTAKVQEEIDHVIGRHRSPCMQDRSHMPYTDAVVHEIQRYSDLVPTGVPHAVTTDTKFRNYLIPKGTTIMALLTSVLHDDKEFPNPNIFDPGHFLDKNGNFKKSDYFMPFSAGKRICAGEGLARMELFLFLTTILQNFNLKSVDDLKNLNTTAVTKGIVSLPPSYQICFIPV
Put plainly: Inhibition of CYP2C8 in human liver microsomes assessed as enzyme-mediated metabolite formation at 10 uM using paclitaxel as substrate preincubated for 20 mins followed by substrate addition measured after 30 mins in presence of NADPH by LC-MS/MS analysis relative to control. Further details: scale not given: the % may be the effect or the level left. The settings on record: probe paclitaxel, read-out: Activity. On the technique in general: Liver microsomes are vesicles of endoplasmic reticulum, rich in cytochrome P450 enzymes.

The target in data set [2] is T2, CYP2D6 (Homo sapiens, UniProt P10635). Kind of data set: Inhibition of CYP2D6 in human liver microsomes assessed as enzyme-mediated metabolite formation at 1 uM using dextromethorphan as substrate preincubated for 20 mins followed by substrate addition measured after 30 mins in presence of NADPH by LC-MS/MS analysis relative to control. The arrangement: scale not given: the % may be the effect or the level left. The settings on record: probe dextromethorphan, read-out: Activity.

In data set [3] the target is T2, CYP2D6. Put plainly: Inhibition of CYP2D6 in human liver microsomes assessed as enzyme-mediated metabolite formation at 1 uM using dextromethorphan as substrate incubated for 5 mins followed by NADPH addition measured after 30 mins by LC-MS/MS analysis relative to control. The settings on record: probe dextromethorphan, read-out: Activity. Further details: scale not given: the % may be the effect or the level left.

Data set [4] has as its target T3, CYP2C19 (Homo sapiens, UniProt P33261). Kind of data set: Inhibition of CYP2C19 in human liver microsomes assessed as enzyme-mediated metabolite formation at 30 uM using (S)-mephenytoin as substrate preincubated for 20 mins followed by substrate addition measured after 30 mins in presence of NADPH by LC-MS/MS analysis relative to control. Further details: scale not given: the % may be the effect or the level left. The settings on record: probe (S)-mephenytoin, read-out: Activity.

The target in data set [5] is T1, CYP2C8. Kind of data set: Inhibition of CYP2C8 in human liver microsomes assessed as enzyme-mediated metabolite formation at 0.1 uM using paclitaxel as substrate incubated for 5 mins followed by NADPH addition measured after 30 mins by LC-MS/MS analysis relative to control. The arrangement: scale not given: the % may be the effect or the level left. The settings on record: probe paclitaxel, read-out: Activity.

The target in data set [6] is T1, CYP2C8. Kind of data set: Inhibition of CYP2C8 in human liver microsomes assessed as enzyme-mediated metabolite formation at 1 uM using paclitaxel as substrate preincubated for 20 mins followed by substrate addition measured after 30 mins in presence of NADPH by LC-MS/MS analysis relative to control. The arrangement: scale not given: the % may be the effect or the level left. The settings on record: probe paclitaxel, read-out: Activity.

The next data set has as its target CYP2C9 (Homo sapiens, UniProt P11712). Put plainly: Inhibition of CYP2C9 in human liver microsomes assessed as enzyme-mediated metabolite formation at 1 uM using diclofenac as substrate preincubated for 20 mins followed by substrate addition measured after 30 mins in presence of NADPH by LC-MS/MS analysis relative to control. Further details: scale not given: the % may be the effect or the level left. The settings on record: probe diclofenac, read-out: Activity.

The target in data set [7] is T4, CYP2A6 (Homo sapiens, UniProt P11509).
T4 sequence (P11509 whole entry): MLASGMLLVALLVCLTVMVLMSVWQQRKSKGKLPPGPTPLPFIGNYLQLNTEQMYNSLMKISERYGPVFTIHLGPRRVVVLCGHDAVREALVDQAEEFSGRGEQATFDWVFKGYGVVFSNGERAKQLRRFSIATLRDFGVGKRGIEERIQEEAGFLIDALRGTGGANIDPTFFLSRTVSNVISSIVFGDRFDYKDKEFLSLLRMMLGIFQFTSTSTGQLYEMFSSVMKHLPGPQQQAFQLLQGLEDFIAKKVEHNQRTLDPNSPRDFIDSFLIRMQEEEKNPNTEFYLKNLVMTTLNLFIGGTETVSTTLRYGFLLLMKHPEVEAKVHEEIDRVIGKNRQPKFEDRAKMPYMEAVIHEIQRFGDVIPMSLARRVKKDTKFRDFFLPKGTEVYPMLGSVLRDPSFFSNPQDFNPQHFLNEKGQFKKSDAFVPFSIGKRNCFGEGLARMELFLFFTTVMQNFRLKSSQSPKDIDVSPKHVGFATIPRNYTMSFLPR
Put plainly: Inhibition of CYP2A6 in human liver microsomes assessed as enzyme-mediated metabolite formation at 0.3 uM using coumarin as substrate preincubated for 20 mins followed by substrate addition measured after 30 mins in presence of NADPH by LC-MS/MS analysis relative to control. Further details: scale not given: the % may be the effect or the level left. The settings on record: probe coumarin, read-out: Activity.

Data set [8] has as its target T1, CYP2C8. Put plainly: Inhibition of CYP2C8 in human liver microsomes assessed as enzyme-mediated metabolite formation at 0.3 uM using paclitaxel as substrate incubated for 5 mins followed by NADPH addition measured after 30 mins by LC-MS/MS analysis relative to control. The settings on record: probe paclitaxel, read-out: Activity. The arrangement: scale not given: the % may be the effect or the level left.

Another data set has as its target T5, Cytochrome P450 1A2 (Homo sapiens, UniProt P05177).
T5 sequence (P05177 whole entry): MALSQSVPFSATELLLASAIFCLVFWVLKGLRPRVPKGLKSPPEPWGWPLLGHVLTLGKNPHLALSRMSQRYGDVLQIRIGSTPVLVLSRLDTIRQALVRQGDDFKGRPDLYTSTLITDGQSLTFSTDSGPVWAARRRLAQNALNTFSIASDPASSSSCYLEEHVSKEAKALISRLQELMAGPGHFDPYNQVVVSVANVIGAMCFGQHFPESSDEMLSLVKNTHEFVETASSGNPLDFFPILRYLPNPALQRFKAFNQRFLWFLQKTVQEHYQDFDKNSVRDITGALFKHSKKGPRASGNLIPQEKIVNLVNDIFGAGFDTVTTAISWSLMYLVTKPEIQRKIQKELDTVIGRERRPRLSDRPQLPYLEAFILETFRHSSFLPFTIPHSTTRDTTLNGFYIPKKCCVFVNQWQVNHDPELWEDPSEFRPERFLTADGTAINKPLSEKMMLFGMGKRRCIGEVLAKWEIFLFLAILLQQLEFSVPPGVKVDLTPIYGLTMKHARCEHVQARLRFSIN
Kind of data set: Inhibition of CYP1A2 in human liver microsomes assessed as enzyme-mediated metabolite formation using phenacetin as substrate incubated for 5 mins followed by NADPH addition measured after 30 mins by LC-MS/MS analysis.

In data set [9] the target is T3, CYP2C19. Put plainly: Inhibition of CYP2C19 in human liver microsomes assessed as enzyme-mediated metabolite formation at 0.1 uM using (S)-mephenytoin as substrate preincubated for 20 mins followed by substrate addition measured after 30 mins in presence of NADPH by LC-MS/MS analysis relative to control. The arrangement: scale not given: the % may be the effect or the level left. The settings on record: probe (S)-mephenytoin, read-out: Activity.

For data set [10], the target named is T4, CYP2A6. Kind of data set: Inhibition of CYP2A6 in human liver microsomes assessed as enzyme-mediated metabolite formation at 1 uM using coumarin as substrate preincubated for 20 mins followed by substrate addition measured after 30 mins in presence of NADPH by LC-MS/MS analysis relative to control. Further details: scale not given: the % may be the effect or the level left. The settings on record: probe coumarin, read-out: Activity.

T2 sequence (P10635 whole entry): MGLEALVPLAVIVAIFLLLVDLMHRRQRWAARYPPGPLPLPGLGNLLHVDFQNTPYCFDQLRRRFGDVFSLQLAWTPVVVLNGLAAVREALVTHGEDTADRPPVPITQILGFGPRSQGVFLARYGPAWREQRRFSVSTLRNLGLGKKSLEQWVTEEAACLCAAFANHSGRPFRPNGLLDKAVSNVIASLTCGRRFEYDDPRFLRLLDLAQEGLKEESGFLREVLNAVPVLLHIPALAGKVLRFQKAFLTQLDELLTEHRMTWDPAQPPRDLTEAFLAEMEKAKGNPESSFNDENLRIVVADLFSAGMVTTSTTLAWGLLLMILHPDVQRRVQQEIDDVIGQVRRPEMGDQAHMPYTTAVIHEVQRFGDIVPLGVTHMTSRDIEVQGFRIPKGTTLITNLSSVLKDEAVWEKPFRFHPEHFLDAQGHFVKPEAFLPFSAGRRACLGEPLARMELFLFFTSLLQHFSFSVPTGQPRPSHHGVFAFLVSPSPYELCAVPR
T3 sequence (P33261 whole entry): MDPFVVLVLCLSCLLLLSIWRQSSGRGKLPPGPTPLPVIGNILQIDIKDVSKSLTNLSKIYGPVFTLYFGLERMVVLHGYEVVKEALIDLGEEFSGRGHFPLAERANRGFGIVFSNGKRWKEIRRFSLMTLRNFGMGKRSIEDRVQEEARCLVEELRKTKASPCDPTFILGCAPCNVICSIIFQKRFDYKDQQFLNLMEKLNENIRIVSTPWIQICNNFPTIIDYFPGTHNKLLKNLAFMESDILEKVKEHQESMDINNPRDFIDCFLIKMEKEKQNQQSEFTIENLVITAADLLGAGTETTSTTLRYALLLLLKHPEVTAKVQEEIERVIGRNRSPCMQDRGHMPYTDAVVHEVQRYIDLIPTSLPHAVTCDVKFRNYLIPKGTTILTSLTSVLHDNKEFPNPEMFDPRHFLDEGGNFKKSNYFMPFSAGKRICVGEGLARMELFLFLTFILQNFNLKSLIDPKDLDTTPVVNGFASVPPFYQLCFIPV
CYP2C9, sequence (P11712 whole entry): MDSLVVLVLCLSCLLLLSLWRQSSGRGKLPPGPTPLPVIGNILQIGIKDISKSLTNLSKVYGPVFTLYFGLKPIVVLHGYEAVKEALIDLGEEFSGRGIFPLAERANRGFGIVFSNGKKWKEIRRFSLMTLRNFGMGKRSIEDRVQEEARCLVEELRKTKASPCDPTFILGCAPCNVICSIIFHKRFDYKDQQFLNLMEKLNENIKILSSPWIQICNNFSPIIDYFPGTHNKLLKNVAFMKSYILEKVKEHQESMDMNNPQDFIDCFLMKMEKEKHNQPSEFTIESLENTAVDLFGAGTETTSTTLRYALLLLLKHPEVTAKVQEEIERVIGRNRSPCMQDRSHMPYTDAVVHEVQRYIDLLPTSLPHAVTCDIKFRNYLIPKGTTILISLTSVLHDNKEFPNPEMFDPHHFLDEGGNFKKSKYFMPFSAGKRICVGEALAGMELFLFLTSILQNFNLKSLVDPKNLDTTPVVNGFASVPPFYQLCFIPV

Consider `CCCCCCCC(=O)CCc1ccc(O)c(OC)c1`, for which the activity at 0.5 h, 10 µM on CYP2C8 [1] was determined as 49%. Moreover, the activity at 0.5 h, 1 µM at CYP2D6 [2] came out at 92.2%; at CYP2D6 [3], 75.9%; on CYP2C8 [6], 61.5%; at CYP2C9, 81.1%; on CYP2A6 [10], 102%. Moreover, the activity at 0.5 h, 30 µM at CYP2C19 [4] was 36.8%. The activity at 0.5 h, 0.1 µM at CYP2C8 [5] turned out to be 88.7%; on CYP2C19 [9], 102%. Moreover, the activity at 0.5 h, 0.3 µM came to 103% on CYP2A6 [7] and 82% on CYP2C8 [8]. For the same molecule, the IC50 (in general, the point on the concentration scale where inhibition reaches its midpoint) at Cytochrome P450 1A2 was determined as 7.1 µM.
